One assay has as its system SARS-CoV-2 Beta variant. To be noted: mouse, in vivo.
Assay [1] has as its system SARS-CoV-2 variants WA1, XBB.1.5, XBB.1.16, and EG.5.1. In words: microbe, parasite or virus in culture. Type of assay: cell-based. As to conditions: Severe acute respiratory syndrome coronavirus 2, read-out: EC50 range against all viruses tested.

Results on three compounds are retold here after publication PMC12017303 (Science Advances, 2025).

What is called EC50 is the concentration at which the effect is half-maximal.

A value given as a limit tells only on which side of the number the result lay.

Take `C#CCn1c(C)c(-n2nnc3ccccc32)c(=O)n(-c2cncc3ccccc23)c1=O` [AVI-4516]: in the assay with SARS-CoV-2 Beta variant, the “IC50 for decrease in lung virus replication” value came out at 14.7 mg/kg; the “SARS-CoV-2 N protein in lung (immunohistochemistry)” value is recorded as “minimal or no viral protein present”; the “mononuclear cell infiltration and respiratory epithelial cell injury in lung” value is reported as “notably absent”.
In the case of `C#CCn1c(C)c(-n2nnc3cc(F)c(F)cc32)c(=O)n(-c2cncc3ccccc23)c1=O` [AVI-4773], in the assay with SARS-CoV-2 Beta variant, the “reduction in viral load compared to the ensitrelvir-treated arm” value is more than 3 log; the “reduction in viral load compared to vehicle-treated animals” value is listed as ~ 6 log; the “reduction in viral titers” value is reported as > 1,000,000; the “viral titers after three doses, result in words” value is given as “below detectable levels”.
As to `CC(C)(C)[C@H](NC(=O)C(F)(F)F)C(=O)N1C[C@H]2[C@@H]([C@H]1C(=O)N[C@H](C#N)C[C@@H]1CCNC1=O)C2(C)C` [nirmatrelvir, reference compound], in the assay on SARS-CoV-2 Beta variant, the “SARS-CoV-2 N protein in lung (immunohistochemistry)” value is “minimal or no viral protein present” and the “reduction in virus replication compared to the vehicle (plaque assay)” value came out at 2 log. Besides, in assay [1], the half-maximal effective concentration (EC50) lay in the range of 21 to 67 nM.
